The numbers were not newly measured in patent US20220008494A1, “COMPOSITION FOR USE IN THE PREVENTION AND/OR SYMPTOMATIC TREATMENT OF IRRITABLE BOWEL SYNDROME” (priority 2018, published 2022), which cites them from elsewhere.

SMILES strings stand for the structures.

Data set [1] concerns carrageenan-induced edema. Particulars: 10 mg/kg p.o.; from 1 to 24 h (p<0.01) compared to the control.
Data set [2] has as its system tail withdrawal reaction time. Conditions: rat, in vivo.
In another data set the test system is IBS patients. Conditions: 300 mg per day as adjunct to standard therapies.
Setting [3] is: 1 g/day butyric acid and inulin for 1 month, IBS-D compared to IBS-C patients.

In the case of `O=C(O)Cc1ccccc1Nc1c(Cl)cccc1Cl` [Diclofenac, Diclofenac sodium], the “edema (paw volume, plethysmometrically)” value in data set [1] is “significant decrease”.

Turning to `CC(C)=CCN1CCC2(C)c3cc(O)ccc3CC1C2C` (stereo not shown) [Pentazocine], the “reaction time (tail withdrawal)” value in data set [2] was “significant increase”.

Turning to `CCCC(=O)O` [butyric acid], the “condition of IBS-D patients” value with IBS-D patients (1 g/day butyric acid (4 x 250 mg capsules) and inulin for 1 month) was “normalization”. Also, in the data set on IBS-D patients (setting [3]), the “frequency of diarrhea episodes” value is “significant reduction” and the stool consistency entry is reported as “significant increase”. Also, in the data set on IBS patients (fourth week of treatment), the “frequency of abdominal pain associated with defecation” value is “significant decrease”. Also, in the data set on IBS patients (twelfth week), the defecation-associated pain result is given as “also decrease”, the post-defecation stimulus result was “also decrease”, the post-prandial abdominal pain result is recorded as “also decrease” and the spontaneous abdominal pain result is on record as “also decrease”.
